The values that follow come from US4912120A, “3,5-substituted 4,5-dihydroisoxazoles as transglutaminase inhibitors” (Syntex (U.S.A.) Inc., priority 1987, dated 1990).

Data set [1] deals with blackhead-like lesions and whitehead-like lesions (spontaneous acne-like condition). The data set can be described thus: Mexican Hairless Dog Assays. It counts as in vivo, Mexican hairless beagle dog. The settings on record: two dogs. The source says:
To determine the utility of the compounds of Formula (I) for treating acne in mammals, one can use the procedures described by DeYoung, et al. Another model examined is the Mexican hairless beagle dog, a procedure for which is set forth in Example 10.
Gel vehicle alone was not effective.

For another data set, the system named is psoriatic plaque. Nature of the data set: Psoriatic plaque chamber test (Example 13). Conditions: 1% w/w in propylene glycol/Carbopol 940 gel, 0.05 ml in chamber on psoriatic plaque, five subjects, applied days 1-16, readings to day 23. It counts as in vivo, humans. As for the experimental part: To determine the utility of the compounds of Formula (I) for treating psoriasis in humans, the procedure of Example 13 can be followed.
5-(N-benzyloxycarbonyl-L-phenylalaninamidomethyl)-3-bromo-4,5-dihydroisoxazole was levigated into a gel vehicle (see Example 14) to afford a concentration of 1% w/w. The gel vehicle contained primarily propylene glycol which was gelled with Carbopol 940.
0.05 ml of the gel containing active ingredient was filled into a 1 mm deep teflon chamber (Durhing chamber) which was then applied to the psoriatic plaque of each of the five subjects. The plaque was then covered with Scanpor® adhesive tape. The gel was applied on days 1, 3, 5, 8, 10, 12 and 16. Each time, fresh gel, chamber, and tape were used. Readings were taken on Days 5, 10, 12, 16 and 23 (one week off therapy). The presence or absence of a normal appearing epidermis was evaluated using a scale of 0 to 2.

The nature of data set [2]: Toxicity of the Compounds of Formula I. It counts as in vivo. The settings on record: 10 mg/Kg intraperitoneally daily for 14 days, 5 male and 5 female CDI mice per group. As for the experimental part: Three groups, each composed of 5 male and 5 female CDI mice, were injected intraperitoneally with 10 mg/Kg of 5-(N-benzyloxycarbonyl-L-phenylalaninamidomethyl)-3-bromo-4,5-dihydroisoxazole or 5-(N-benzyloxycarbonyl-L-para-tyrosinamidomethyl)-3-chloro-4,5-dihydroisoxazole daily for 14 days.

The test system of a further data set is transglutaminase. Conditions: prior-art inhibitors; cited from earlier work.
Setting [3] is: 2.5% in gel (40% dimethylisosorbide, 55% ethanol, 2.5% carbomer 940).
Setting [4] is: 2.5% in gel (2.5% Klucel, 10% diisopropyl adipate, 80% ethanol, 5% propylene glycol), once daily, 14 days.

Consider `O=C(N[C@@H](Cc1ccc(O)cc1)C(=O)NCC1CC(Br)=NO1)OCc1ccccc1` (mixture of isomers) [5-(N-benzyloxycarbonyl-L-paratyrosinamidomethyl)-3-bromo-4,5-dihydroisoxazole], for which the clearing of lesions entry in data set [1] (setting [3]) is “positive results”.

Regarding `O=C(N[C@@H](Cc1ccccc1)C(=O)NCC1CC(Br)=NO1)OCc1ccccc1` (mixture of isomers) [5-(N-benzyloxycarbonyl-L-phenylalaninamidomethyl)-3-bromo-4,5-dihydroisoxazole], the “activity against psoriasis (presence or absence of normal appearing epidermis, scale of 0 to 2)” value in the data set with psoriatic plaque is reported as “shows activity against psoriasis”. The toxic effects result in data set [2] is given as “No toxic effects”. Further, the clearing of lesions entry in data set [1] (setting [4]) is “clearing of the majority of blackhead-like lesions and many whitehead-like lesions”; in data set [1] (setting [3]) it was “positive results”.

On to `O=C(N[C@@H](Cc1ccccc1)C(=O)NCC1CC(Cl)=NO1)OCc1ccccc1` (mixture of isomers) [5-(N-benzyloxycarbonyl-L-phenylalaninamidomethyl)-3-chloro-4,5-dihydroisoxazole], for which the clearing of lesions result in data set [1] (setting [4]) was “good clearing”; in data set [1] (setting [3]), “positive results”.

As for `O=C(N[C@@H](Cc1ccc(O)cc1)C(=O)NCC1CC(Cl)=NO1)OCc1ccccc1` (stereo partly drawn) [5-(N-benzyloxycarbonyl-L-para-tyrosinamidomethyl)-3-chloro-4,5-dihydroisoxazole], the toxic effects result in data set [2] was “No toxic effects”.

With `NCCSSCCN` [cystamine], in the data set with transglutaminase, the effective concentration entry was “greater than 10^-3 M” and the specificity for transglutaminases entry was “lacks specificity for transglutaminases”.
